# Measured values as given in patent US20240033272A1, “USE OF C[…] THE TREATMENT OF SEIZURES ASSOCIATED WITH HERPES SIMPLEX VIRUS” (GW Research Limited, priority 2020, published 2024).
# Entries after “also recorded” stand apart in the source; their conditions may differ.
# Test system: patients diagnosed with herpes simplex virus (seizures associated with herpes simplex virus)
# Experiment: Open label, expanded-access program: seizure frequency recorded by caregivers in a diary, change relative to baseline
# Format: in vivo, human
# Parameters: Reduction in myoclonic seizures over the treatment period / Reduction in absence seizures over the treatment period / Reduction in focal seizures with impairment over the treatment period / Reduction in tonic-clonic seizures over the treatment period / Reduction in atonic seizures over the treatment period / Reduction in tonic seizures over the treatment period: concentration or dose not given beside the values; Seizure frequency, tonic-clonic / Seizure frequency, myoclonic / Seizure frequency, absence / Seizure frequency, focal with impairment / Seizure frequency, tonic / Seizure frequency, focal without impairment / Seizure frequency, atonic: unit not given here
# Details: for Seizure frequency, focal with impairment: baseline 14.0; for Seizure frequency, absence: baseline 28.0; for Seizure frequency, myoclonic: baseline 59.0; for Seizure frequency, tonic: baseline 24.0
# Protocol: Subjects were required to be on one or more AEDs at stable doses for a minimum of two weeks prior to baseline and to have stable vagus nerve stimulation (VNS) settings and ketogenic diet ratios for a minimum of four weeks prior to baseline.
# Modifications were made to concomitant AEDs as per clinical indication.
# Seizure frequency, intensity, and duration were recorded by caregivers in a diary during a baseline period of at least 28 days. Changes in seizure frequency relative to baseline were calculated after at least 2 weeks and at defined timepoints of treatment.
# Patients may be defined as responders if they had more than 50% reduction in seizure frequency compared to baseline. The percent change in seizure frequency was calculated as follows: […]
# The percent change of seizure frequency may be calculated for any time interval where seizure number has been recorded. For the purpose of this example the percent change of seizure frequency for the end of the treatment period was calculated as follows: […]
# [1] = Patient 4, treated for 24 weeks, vs baseline
# [2] = Patient 5, 4 weeks, CBD 20.0 mg/kg/day
# [3] = Patient 5, 8 weeks, CBD 25.0 mg/kg/day
# [4] = Patient 5, 12 weeks, CBD 25.0 mg/kg/day
# [5] = Patient 5, 16 weeks, CBD 25.0 mg/kg/day
# [6] = Patient 5, 24 weeks, CBD 30.0 mg/kg/day
# [7] = Patient 5, 36 weeks, CBD 40.0 mg/kg/day
# [8] = Patient 5, 60 weeks, CBD 50.0 mg/kg/day
# [9] = Patient 5, 72 weeks, CBD 50.0 mg/kg/day
# [10] = Patient 5, 84 weeks, CBD 30.0 mg/kg/day
# [11] = Patient 5, 96 weeks, CBD 45.0 mg/kg/day
# [12] = Patient 5, 108 weeks, CBD 45.0 mg/kg/day
# [13] = Patient 5, 120 weeks, CBD 45.0 mg/kg/day
# [14] = Patient 5, 132 weeks, CBD 45.0 mg/kg/day
# [15] = Patient 5, 144 weeks, CBD 45.0 mg/kg/day
# [16] = Patient 5, treated for 144 weeks, vs baseline
compound,measurement,setting,value
"C=C(C)[C@@H]1CCC(C)=C[C@H]1c1c(O)cc(CCCCC)cc1O [CBD, cannabidiol]","Seizure frequency, tonic-clonic","Patient 4, 16 weeks, CBD 15.0 mg/kg/day, baseline 10.0",0.7
same,"Seizure frequency, focal with impairment","Patient 4, 16 weeks, CBD 15.0 mg/kg/day",2.7
same,"Seizure frequency, atonic","Patient 4, 16 weeks, CBD 15.0 mg/kg/day, baseline 20.0",14.0
same,"Seizure frequency, tonic-clonic","Patient 4, 24 weeks, CBD 15.0 mg/kg/day, baseline 10.0",10.0
same,"Seizure frequency, focal with impairment","Patient 4, 24 weeks, CBD 15.0 mg/kg/day",3.0
same,"Seizure frequency, atonic","Patient 4, 24 weeks, CBD 15.0 mg/kg/day, baseline 20.0",13.0
same,Reduction in atonic seizures over the treatment period,[1],35%
same,Reduction in focal seizures with impairment over the treatment period,[1],78.6%
same,"Seizure frequency, absence",[2],45.0
same,"Seizure frequency, myoclonic",[2],75.0
same,"Seizure frequency, tonic-clonic","Patient 5, 4 weeks, CBD 20.0 mg/kg/day, baseline 71.0",75.0
same,"Seizure frequency, atonic","Patient 5, 4 weeks, CBD 20.0 mg/kg/day, baseline 748.0",965.0
same,"Seizure frequency, absence",[3],0.0
same,"Seizure frequency, myoclonic",[3],60.0
same,"Seizure frequency, tonic-clonic","Patient 5, 8 weeks, CBD 25.0 mg/kg/day, baseline 71.0",7.0
same,"Seizure frequency, atonic","Patient 5, 8 weeks, CBD 25.0 mg/kg/day, baseline 748.0",8.0
same,"Seizure frequency, absence",[4],0.0
same,"Seizure frequency, myoclonic",[4],1.0
same,"Seizure frequency, tonic-clonic","Patient 5, 12 weeks, CBD 25.0 mg/kg/day, baseline 71.0",4.0
same,"Seizure frequency, atonic","Patient 5, 12 weeks, CBD 25.0 mg/kg/day, baseline 748.0",25.0
same,"Seizure frequency, absence",[5],0.0
same,"Seizure frequency, myoclonic",[5],0.0
same,"Seizure frequency, tonic-clonic","Patient 5, 16 weeks, CBD 25.0 mg/kg/day, baseline 71.0",10.0
same,"Seizure frequency, atonic","Patient 5, 16 weeks, CBD 25.0 mg/kg/day, baseline 748.0",53.0
same,"Seizure frequency, absence",[6],0.0
same,"Seizure frequency, myoclonic",[6],68.0
same,"Seizure frequency, tonic-clonic","Patient 5, 24 weeks, CBD 30.0 mg/kg/day, baseline 71.0",40.0
same,"Seizure frequency, absence",[7],0.0
same,"Seizure frequency, myoclonic",[7],129.0
same,"Seizure frequency, tonic-clonic","Patient 5, 36 weeks, CBD 40.0 mg/kg/day, baseline 71.0",76.0
same,"Seizure frequency, atonic","Patient 5, 36 weeks, CBD 40.0 mg/kg/day, baseline 748.0",44.0
same,"Seizure frequency, absence",[8],0.0
same,"Seizure frequency, myoclonic",[8],184.0
same,"Seizure frequency, tonic-clonic","Patient 5, 60 weeks, CBD 50.0 mg/kg/day, baseline 71.0",137.0
same,"Seizure frequency, atonic","Patient 5, 60 weeks, CBD 50.0 mg/kg/day, baseline 748.0",45.0
same,"Seizure frequency, absence",[9],3.0
same,"Seizure frequency, myoclonic",[9],141.0
same,"Seizure frequency, tonic-clonic","Patient 5, 72 weeks, CBD 50.0 mg/kg/day, baseline 71.0",130.0
same,"Seizure frequency, atonic","Patient 5, 72 weeks, CBD 50.0 mg/kg/day, baseline 748.0",46.3
same,"Seizure frequency, absence",[10],5.7
same,"Seizure frequency, myoclonic",[10],81.0
same,"Seizure frequency, tonic-clonic","Patient 5, 84 weeks, CBD 30.0 mg/kg/day, baseline 71.0",77.0
same,"Seizure frequency, atonic","Patient 5, 84 weeks, CBD 30.0 mg/kg/day, baseline 748.0",39.3
same,"Seizure frequency, absence",[11],8.0
same,"Seizure frequency, myoclonic",[11],41.0
same,"Seizure frequency, tonic-clonic","Patient 5, 96 weeks, CBD 45.0 mg/kg/day, baseline 71.0",72.0
same,"Seizure frequency, atonic","Patient 5, 96 weeks, CBD 45.0 mg/kg/day, baseline 748.0",97.0
same,"Seizure frequency, absence",[12],11.0
same,"Seizure frequency, myoclonic",[12],64.0
same,"Seizure frequency, tonic-clonic","Patient 5, 108 weeks, CBD 45.0 mg/kg/day, baseline 71.0",53.0
same,"Seizure frequency, atonic","Patient 5, 108 weeks, CBD 45.0 mg/kg/day, baseline 748.0",92.0
same,"Seizure frequency, absence",[13],11.3
same,"Seizure frequency, myoclonic",[13],53.0
same,"Seizure frequency, tonic-clonic","Patient 5, 120 weeks, CBD 45.0 mg/kg/day, baseline 71.0",44.3
same,"Seizure frequency, atonic","Patient 5, 120 weeks, CBD 45.0 mg/kg/day, baseline 748.0",72.3
same,"Seizure frequency, absence",[14],18.8
same,"Seizure frequency, myoclonic",[14],66.4
same,"Seizure frequency, tonic-clonic","Patient 5, 132 weeks, CBD 45.0 mg/kg/day, baseline 71.0",40.4
same,"Seizure frequency, atonic","Patient 5, 132 weeks, CBD 45.0 mg/kg/day, baseline 748.0",128.0
same,"Seizure frequency, absence",[15],49.6
same,"Seizure frequency, myoclonic",[15],78.0
same,"Seizure frequency, tonic-clonic","Patient 5, 144 weeks, CBD 45.0 mg/kg/day, baseline 71.0",18.0
same,"Seizure frequency, atonic","Patient 5, 144 weeks, CBD 45.0 mg/kg/day, baseline 748.0",78.4
same,Reduction in atonic seizures over the treatment period,[16],89.5%
same,Reduction in tonic-clonic seizures over the treatment period,[16],76.4%
same,"Seizure frequency, tonic","Patient 6, 2 weeks, CBD 5.0 mg/kg/day",40.0
same,"Seizure frequency, tonic","Patient 6, 4 weeks, CBD 10.0 mg/kg/day",20.0
same,"Seizure frequency, tonic","Patient 6, 8 weeks, CBD 20.0 mg/kg/day",32.0
same,"Seizure frequency, tonic","Patient 6, 12 weeks, CBD 25.0 mg/kg/day",12.0
same,"Seizure frequency, tonic","Patient 6, 24 weeks, CBD 25.0 mg/kg/day",15.2
same,"Seizure frequency, tonic","Patient 6, 36 weeks, CBD 25.0 mg/kg/day",15.2
same,"Seizure frequency, tonic","Patient 6, 48 weeks, CBD 25.0 mg/kg/day",18.0
same,"Seizure frequency, tonic","Patient 6, 60 weeks, CBD 25.0 mg/kg/day",19.2
same,Reduction in tonic seizures over the treatment period,"Patient 6, treated for 60 weeks, vs baseline",20%
same,"Reductions in seizures over period of treatment, overall","all six patients, tonic, tonic-clonic, atonic, myoclonic, absence and focal seizures with impairment",20-100%
same,Benefit in patients with focal seizures with impairment (in words),patients 1 and 4,significant benefit
same,Effect on seizure frequency (in words),"six patients, tonic, tonic-clonic, atonic, myoclonic, absence and focal seizures with impairment",effective in reducing the frequency; also recorded: significantly reduce the number of seizures; also recorded: significant reduction
